What was measured:
MDCK cells = type: cell-based
[1] = test system: PA-I protein expression in PAO1; type: cell-based, Pseudomonas aeruginosa
PA27853 = test: Biofilm formation assay, PA27853; type: cell-based, Pseudomonas aeruginosa
[2] = test system: PA-I promoter activity in reporter strain PA27853/PLL-EGFP
[3] = test system: PA-I expression in P. aeruginosa; type: cell-based, Pseudomonas aeruginosa

C=CCN1C[C@H](C)N([C@H](c2ccc(C(=O)N(CC)CC)cc2)c2cccc(O)c2)C[C@H]1C [BW373U86]
TEER of MDCK cells following apical exposure to PA27853 plus opioid (MDCK cells): more profound decrease in the TEER
PA-I protein [1]: same degree as C4-HSL
biofilm production (PA27853): especially increased
PA-I expression as judged by fluorescence of the GFP reporter strain [2]: greatest effect on PA-I expression
response to express PA-I [3]: robust response
